From the NIST ThermoML archive (doi:10.1021/je1005533)

Columns and labels:
[1] = refractive index (other wavelength) (dimensionless); settings: 101.3 kPa, Liquid, Wavelength=632.8 nm, Standard Abbe refractometry
[2] = refractive index (other wavelength) (dimensionless); xn = mol fraction of the nth substance listed; settings: 101.3 kPa, Liquid, Wavelength=632.8 nm, Standard Abbe refractometry

COC(=O)OC [dimethyl carbonate]
[1]
Settings | refractive index
308.25 K | 1.3607
309.26 K | 1.3602
310.32 K | 1.3597
311.36 K | 1.3592
312.44 K | 1.3587
313.49 K | 1.3582
314.53 K | 1.3577
315.56 K | 1.3572
316.66 K | 1.3567
317.67 K | 1.3562
318.72 K | 1.3557
327.67 K | 1.3514

COC(=O)OC [dimethyl carbonate] + CCCCCCCCCCCCCCCC
[2], x1 = 1
Settings | refractive index
308.25 K | 1.3607
309.26 K | 1.3602
310.32 K | 1.3597
311.36 K | 1.3592
312.44 K | 1.3587
313.49 K | 1.3582
314.53 K | 1.3577
315.56 K | 1.3572
316.66 K | 1.3567
317.67 K | 1.3562
318.72 K | 1.3557

COC(=O)OC [dimethyl carbonate] + CCCCCCCCCCCCCCCCCC
Settings | refractive index
[2], 327.67 K, x1 = 1 | 1.3514

CCCCCCCCCCCCCCCC [hexadecane]
[1]
Settings | refractive index
308.21 K | 1.427
309.24 K | 1.4265
310.21 K | 1.4261
311.24 K | 1.4256
312.3 K | 1.4252
313.34 K | 1.4248
314.44 K | 1.4244
315.54 K | 1.4239
316.55 K | 1.4235
317.56 K | 1.4231
318.61 K | 1.4226

CCCCCCCCCCCCCCCCCC [octadecane]
Settings | refractive index
[1], 327.67 K | 1.4231

CCCCCCCCCCCCCCCCCC [octadecane] + COC(=O)OC
[2], 327.67 K
Settings | refractive index
x2 = 0 | 1.4231
x2 = 0.099 | 1.4203
x2 = 0.202 | 1.4169
x2 = 0.299 | 1.4132
x2 = 0.399 | 1.4089
x2 = 0.509 | 1.4034
x2 = 0.601 | 1.3979
x2 = 0.701 | 1.3907
x2 = 0.807 | 1.3806
x2 = 0.902 | 1.3685
